# Reference: patent US10918625B2, “Use of sesquiterpene derivative” (KOOKMIN UNIVERSITY INDUSTRY ACADEMY COOPERATION FOUNDATION, priority 2016, dated 2021)
# Columns and labels:
# Wnt/β-catenin pathway [1] = test: Wnt/β-catenin pathway inhibitory activity: cytoplasmic β-catenin by western blot in Wnt3a-CM treated HEK293 cells; type: cell-based, human; settings: Wnt3a-CM, 15 hours
# Method: HEK293 cells (human embryonic kidney cells) and Wnt3a-secreting L cells were obtained from the ATCC (American Type Culture Collection, USA) and were cultured in DMEM (Dulbecco's modified Eagle's medium) supplemented with 10% FBS (fetal bovine serum), 120 μg/mL penicillin and 200 μg/mL streptomycin.
# Wnt3a-CM (Wnt3a-conditioned medium) was prepared by culturing Wnt3a-secreting L cells in DMEM supplemented with 10% [v/v] FBS (fetal bovine serum) for 4 days and recovering the DMEM medium and sterilizing by filtering through a 0.22-μm filter. Then, after adding a fresh DMEM (supplemented with 10% [v/v] FBS) medium to the cells and culturing for 3 days, the medium was recovered by the same method and then combined with the previously prepared Wnt3a-CM.
# (§1) After treating HEK293 cells with the Wnt3a-CM, the compound of Preparation Example 30 or the compound of Preparation Example 31 (10, 20 or 40 μM) for 15 hours and extracting cytoplasmic proteins from the cells, the amount of β-catenin regulating the CRT (β-catenin response transcription) of the Wnt/β-catenin pathway in the cells was investigated by western blot using a β-catenin antibody (BD Transduction Laboratories, USA) and the ECL system (Santa Cruz Biotechnology).
# as §1, with “The Wnt/β-catenin pathway inhibitory activity of the Preparation Example 32 compound was evaluated in the same manner as in Example <1-1>. Briefly, after” for “After”, “Wnt3a-CM” for “Wnt3a-CM, the compound of Preparation Example 30”, “32 (10 or” for “31 (10,”, “20” for “20 or 40”
# Wnt/β-catenin pathway [2] = test: Wnt/β-catenin pathway inhibitory activity: cytoplasmic β-catenin by western blot in Wnt3a-CM treated ARPE-19 cells; type: cell-based; settings: ARPE-19 human retinal epithelial cells, Wnt3a-CM, compound 3 or 6 μM, 24 hours
# Method: ARPE-19 cells (human retinal epithelial cells) and Wnt3a-secreting L cells were obtained from the ATCC (American Type Culture Collection, USA) and were cultured in DMEM (Dulbecco's modified Eagle's medium) supplemented with 10% FBS, 120 μg/mL penicillin and 200 μg/mL streptomycin. Wnt3a-CM (Wnt3a-conditioned medium) was prepared by culturing Wnt3a-secreting L cells in DMEM supplemented with 10% [v/v] FBS (fetal bovine serum) for 4 days and recovering the DMEM medium and sterilizing by filtering through a 0.22-μm filter. Then, after adding fresh DMEM (supplemented with 10% [v/v] FBS) to the cells and culturing for 3 days, Wnt3a-CM was recovered.
# as §1, with “ARPE-19” for “HEK293”, “33” for “30”, “34 (3” for “31 (10, 20”, “6” for “40”, “24” for “15”
# C57BL/6J mice = test: Tissue toxicity, long-term (8 weeks) administration: blood GPT, BUN, liver and kidney sections; type: in vivo, C57BL/6J mouse; settings: different doses for 8 weeks
# Method: A long-term toxicity test was conducted by administering the compound of Preparation Example 33 at different doses to C57BL/6J mice (10 mice per group) for 8 weeks. In order to investigate the effect on different organs (tissues) of the animals, blood was taken from the animals of the test group to which the compound of Preparation Example 33 was administered and the control group to which only PEG 400:Tween 80:ethanol (8:1:1, v:v:v) was administered 8 weeks later and the level of GPT (glutamate-pyruvate transferase) and BUN (blood urea nitrogen) in the blood was measured using Select E (Vital Scientific NV, Netherlands).
# [3] = test system: macular edema-induced mouse model; test: Inhibition of vascular leakage in the eye, intravitreal administration, laser-induced macular edema mouse model (FA and OCT); type: in vivo, C57BL/6 mouse; settings: 100 ng/0.5 μL in DMSO intravitreal 24 hours after laser, read one week later, vs DMSO control group
# Method: Macular edema was induced in a 10-week-old C57BL/6 mouse by irradiating a laser. After anesthetizing the mouse with ketamine (70 mg/kg) and xylazine (30 mg/kg), the pupil was dilated with 1% tropicamide. Hydroxypropylmethyl cellulose was dropped onto the eye and a microscope cover glass was used as a contact lens. Then, five laser burns were made in the space between the blood vessels around the optic disc (Zeiss 1149-630, laser power 180 mW, duration 0.1 s, spot size 50 μm). In this state, the blood vessel size and permeability were investigated by fluorescein angiography (FA) and optical coherence tomography (OCT). 24 hours after the laser irradiation, 0.5 μL of DMSO (dimethyl sulfoxide) was injected to a control group and 100 ng/0.5 μL of the Preparation Example 33 compound dissolved in DMSO was injected to a test group, into the vitreous cavity of the mouse. One week later, fluorescein angiography and optical coherence tomography were conducted again.
# [4] = In vivo PK after oral administration: concentration in blood plasma and eye (LC-MS/MS); parameters: species or system ICR mouse; settings: 10 mg/kg oral gavage, plasma and eye at 0.5 hour and 2 hours
# Method: Male ICR mice (8 weeks, 30-35 g) were purchased from Samtako Co. (Osan, Korea). The test animals were acclimatized for a week under the following conditions: temperature 23±2° C., relative humidity 55±10%, illumination intensity 150-300 lux, ventilation frequency 15-20 times/h, illumination cycle 12 h (07:00-19:00). All the animal experiments were approved by the Animal Care and Use Committee of Kyungpook National University (Study No. 2016-0043).
# The mice were fasted for 12 hours before drug administration. Feed and water were supplied ad libitum. The compound of Preparation Example 33 was dissolved in DW:PEG 400 (=60:40 (v/v)) and administered by oral gavage at a dose of 10 mg/kg.
# 0.5 hour and 2 hours after the oral administration, blood samples were taken from the abdominal artery. […] of a plasma sample obtained after centrifuging the blood sample at 13,000 rpm for 5 minutes was stored at −80° C. until use for analysis. […]
# In order to investigate the distribution of the compound of the present disclosure in the target tissue, the compound was orally administered at a dose of 10 mg/kg and the concentration of the compound in the blood plasma and eye was measured. The sampling times were determined as 0.5 hour and 2 hours based on the peak plasma concentration and the distribution phase. […]
# [5] = test system: macular edema-induced mouse model; test: Inhibition of vascular leakage in the retina, intraperitoneal administration, laser-induced macular edema mouse model (OCT); type: in vivo, C57BL/6 mouse; settings: 1 mg/kg intraperitoneal every day for 7 days, OCT on day 6, vs vehicle
# Method: After inducing macular edema in a C57BL/6 mouse and intraperitoneally administering the compound of Preparation Example 33, vascular leakage in the retina was investigated.
# Briefly, after anesthetizing an 8-to-12-week-old C57BL/6 mouse with Zoletil (40 mg/kg) and xylazine (5 mg/kg), the pupil was dilated with 1% tropicamide. Hydroxypropylmethyl cellulose was dropped onto the eye and a microscope cover glass was used as a contact lens. Then, 3-5 laser burns were made in the space between the retinal blood vessels around the optic disc (Zeiss 1149-630, laser power 200 mW, duration 0.05 s, spot size 50 μm).
# After the laser irradiation, 10 mL/kg of distilled water as a vehicle was intraperitoneally administered to a control group (FIG. 5, A) and 1 mg/kg of the compound of Preparation Example 33 (dissolved distilled water) was intraperitoneally administered to a test group (FIG. 5, B) every day for 7 days. On day 6, 10% sodium fluorescein was intraperitoneally administered and optical coherence tomography was conducted.
smiles,measurement,setting,value
"C=C1CCCC2C1(C)CCC(C)C2(C)CC1=C2OC(C)(C)N=C2C=C(OC)C1=O [Preparation Example 30, 18-methoxy-22,22-dimethyl-16-[{(5R,8S,9R,10S)-5,8,9-trimethyl-4-methylenedecahydronaphthalen-9-yl}methyl]benzo[d]-oxazol-17(2H)-one]",level of β-catenin in the cytoplasm (western blot),"Wnt/β-catenin pathway [1]; compound 10, 20 or 40 μM",decreased level of β-catenin
"C=C1CCCC2C1(C)CCC(C)C2(C)Cc1c(O)c(OC)cc2nc(C)oc12 [Preparation Example 31, 18-methoxy-22-methyl-16-[{(5S,8S,9R,10S)-5,8,9-trimethyl-4-methylenedecahydronaphthalen-9-yl}methyl]benzo[d]-oxazol-17-ol]",level of β-catenin in the cytoplasm (western blot),"Wnt/β-catenin pathway [1]; compound 10, 20 or 40 μM",decreased level of β-catenin
"C=C1CCC[C@@H]2[C@@](C)(CC3=C(O)C(=O)C=C(OCC)C3=O)[C@H](C)CC[C@@]12C [Preparation Example 34, 3-[[(1S,2R,4aR,8aR)-1,2,4a-trimethyl-5-methylidene-3,4,6,7,8,8a-hexahydro-2H-naphthalen-1-yl]methyl]-5-ethoxy-2-hydroxycyclohexa-2,5-diene-1,4-dione]",level of β-catenin in the cytoplasm (western blot),Wnt/β-catenin pathway [2],decreased level of β-catenin
C=C1CCCC2C1(C)CCC(C)C2(C)CC1=C(O)C(=O)C=C(NCCc2ccccc2)C1=O (stereo not drawn) [Preparation Example 32],level of β-catenin in the cytoplasm (western blot),Wnt/β-catenin pathway [1]; compound 10 or 20 μM,decreased level of β-catenin
"C=C1CCC[C@H]2[C@](C)(CC3=C(O)C(=O)C=C(OC)C3=O)[C@@H](C)CC[C@]12C [Preparation Example 33, 3-[[(1R,2S,4aS,8aS)-1,2,4a-trimethyl-5-methylidene-3,4,6,7,8,8a-hexahydro-2H-naphthalen-1-yl]methyl]-2-hydroxy-5-methoxycyclohexa-2,5-diene-1,4-dione]",liver and kidney tissue sections under optical microscope,C57BL/6J mice,no special abnormality
same,"BUN (blood urea nitrogen) in the blood, control group vs test group",C57BL/6J mice; related with kidney toxicity,no significant difference
same,"GPT (glutamate-pyruvate transferase) in the blood, control group vs test group",C57BL/6J mice; related with liver toxicity,no significant difference
same,level of β-catenin in the cytoplasm (western blot),Wnt/β-catenin pathway [2],decreased level of β-catenin
same,vascular leakage (fluorescein angiography and optical coherence tomography),[3],distinctly decreased vascular leakage
same,distribution in the eye after oral administration,[4],highly targeted in the eye
same,permeability for the target tissue (eye),[4],high permeability
same,vascular leakage (optical coherence tomography),[5],inhibited vascular leakage
